Measured values reported in patent US4203986A, “M-Trifluoro-methylphenyl-piperazine” (Metabio-Joullie, priority 1977, dated 1980).
Like-named read-outs stand apart in the source and are kept apart here.

Columns and labels:
[1] = system: coughing induced by aqueous citric acid aerosol; experiment: Antitussive action in the guinea pig (citric acid aerosol); type: in vivo; conditions: for inhibition in vivo at 22 mg/kg: 22 mg/kg p.o.; for antitussive activity (in words): oral
Excerpt: The technique used is that of SIECKMANN (W.) (in "Notions techniques de Pharmacologie generale" by Michel COLOT, page 75, Masson, Edit, 1972).
The guinea pigs .female. of mean weight 400 g, unanaesthesised, are subjected to the tussigenic effect of aerosols of a 7.5% aqueous citric acid solution. The animals are placed one by one in a cylindrical chamber having at its two extremities two canals, one serving as entrance for the aerosol and the other as its exit.
On the exit tube there is a lateral connection to a MERCURY gas pressure differential gauge joined to an RACIA counter. An adjustable screw clamp placed on the exit tube downstream of the lateral canal permits regulation of the sensitivity of the system such that the normal respiration of the animal only registers very weakly and that displacement of air in the chamber provoked by coughing attack is recorded clearly in the form of vertical traces.
Each guinea pig is first submitted to a control test for 5 minutes. One hour later it receives the test compound. It is replaced in the chamber for 5 minutes, 1 hour after oral administration of the compound.
The number of coughing attacks before and after administration is counted and the percentage inhibition is calculated.

[2] = system: coughing by stimulation of the superior larynx nerve; experiment: Antitussive action in the cat (stimulation of the superior larynx nerve); type: in vivo; conditions: for effect on coughing in cats (in words): i.v.
Protocol: The cats all thriving, male or female of weight between 1.5 and 2.5 kg (test on 10 cats) are anaesthesised by nembutal at a dose of 30 mg/kg interperitoneally.
A cannula having three branches is placed in the trachea. Two of the branches are connected to a device for registering intratracheal pressure (MERCURY gas pressure gauge connected to an RACIA polygraph) The third branch allows elimination of part of the respiratory volume.
A cannula is placed in the femoral vein for administration of the test substances.
The stimulation parameters are as follows: frequency: 5 cycles per sec, amplitude: 5 millisec, voltage: 4 to 6 volts, duration: 15 to 45 sec. (according to the sensitivity of the animal).
There are carried a minimum of 3 stimulations spaced by 5 minutes and provoking coughing attacks of the same severity. The compound is then administered intravenously. The stimulation is then carried out every 5 minutes. If the compound reduces or suppresses the coughing the stimulation is continued until the reappearance of coughing to approximately the same degree as the initial coughing.
The results are expressed as a percentage reduction in the number of coughs.

Acute toxicity in Mice = type: in vivo, mice (SWISS, EOPS, NMRI/Han, female); conditions: for LD50 at 360 h / MTD at 360 h: mouse, in vivo; for LD50 at 360 h / LD 50: method of KARBER and BEHRENS; for MTD at 360 h: read-out: LD 0 (maximum dose tolerated); for LD 0 (maximum dose tolerated) / LD 50: 21600 min
Protocol: The compounds are administered in increasing doses (in arithmetic progression) to groups of five .female. SWISS, EOPS, NMRI/Han mice of the EVIC CEBA strain and having a mean weight of 22 g.
For intravenous administration the compounds are dissolved in distilled water, for oral administration they are suspended in 10% gum arabic solution (volume administered: 0.5 ml/22 g body weight).
The LD 50's are calculated according to the method of KARBER and BEHRENS (B.) (Arch. Exp. Path. Pharmakol. 1935, 177, 379-388).
For each administration method, there is indicated:
LD 0 or maximum dose tolerated.
LD 100 or minimum lethal dose.
The number of animals surviving in the different groups is definitively verified 15 days after administrating the compounds.

[3] = Test on the cataleptic action in rats; type: in vivo; conditions: p.o., every 30 minutes for 6 hours
Protocol: (7) Test on the cataleptic action in rats (groups of 5 animals)
After administration p.o. of the test compounds, the degree of catalepsy is noted every 30 minutes for 6 hours by the test of crossing of the homolateral feet according to BOISSIER (J.R.) and SIMON (P.) (Therapy, 1963, 18, 1257-1277) and using the following notation:
0=animal which is not cataleptic
132 animal conserving position on one side only
2=animal conserving position on both sides

[4] = system: toxicity of amphetamine compounds; experiment: Action on the toxicity of Amphetamine compounds in the mice; type: in vivo; conditions: per os
Protocol: (6) Action on the toxicity of Amphetamine compounds in the mice. (groups of 10 animals)
30 minutes after administration of the test compounds, amphetamine bitartrate is injected interperitioeally at a dose of 10 mg/kg (dose giving substantially 100% mortality) to mice in groups of 10 in boxes 12×18×13 cm. The number of animals surviving 24 hours after the amphetamine administration is noted.

[5] = Cavia porcellus, po, 1 h, read-out: Percentages of inhibition of coughing

Structure (SMILES)	LD50 at 360 h (Acute toxicity in Mice; po, oral administration) [mg/kg]	MTD at 360 h (Acute toxicity in Mice; po, oral administration) [mg/kg]	LD 100 (minimum lethal dose) (Acute toxicity in Mice; oral administration) [mg/kg]	LD 100 (minimum lethal dose) (Acute toxicity in Mice; intravenous administration) [mg/kg]	LD50 at 360 h (Acute toxicity in Mice; iv, intravenous administration) [mg/kg]	MTD at 360 h (Acute toxicity in Mice; iv, intravenous administration) [mg/kg]	also measured
COc1ccc2c3c1O[C@H]1[C@@H](O)C=C[C@H]4[C@@H](C2)N(C)CC[C@@]341 [Codeine, reference compound]	–	–	–	–	–	–	inhibition in vivo at 35 mg/kg ([1]; Cavia porcellus, po, 1 h, 35 mg/kg p.o., read-out: Percentages of inhibition of coughing): 64%; inhibition in vivo at 70 mg/kg ([1]; Cavia porcellus, po, 1 h, 70 mg/kg p.o., read-out: Percentages of inhibition of coughing): 71%; % maximum reduction in the number of coughs ([2]; 3.5 mg/kg i.v.): 100%
OCC(O)CN1CCN(c2ccc(F)c(C(F)(F)F)c2)CC1 (stereo not drawn) [LJ 1121, 3-[4-(3-Trifluoromethyl-4-fluorophenyl)-piperazino]propane-1,2-diol]	925	500	1250	–	–	–	–
OCC(O)CN1CCN(c2cccc(C(F)(F)F)c2)CC1 (stereo not drawn) [LJ 1142, 3-[4-(m-Trifluoromethylphenyl)-piperazino]-propane-1,2-diol]	1120	750	1500	300	252	225	–
OC1CCCCC1N1CCN(c2cccc(C(F)(F)F)c2)CC1 (stereo not drawn) [LJ 1143, 2-[4-(m-Trifluoromethylphenyl)-piperazino]-cyclohexanol]	625	250	1000	81	69	56	–
OC(CN1CCN(c2cccc(C(F)(F)F)c2)CC1)CN1CCN(c2cccc(C(F)(F)F)c2)CC1 [LJ 1145, 1,3-bis[4-(m-Trifluoromethylphenyl)-piperazino]-propan-2-ol]	–	–	1000	–	–	–	inhibition in vivo at 58 mg/kg ([1]; Cavia porcellus, po, 1 h, 58 mg/kg p.o., read-out: Percentages of inhibition of coughing): 58%; LD 0 (maximum dose tolerated) (Acute toxicity in Mice; oral administration): 200 mg/kg; LD 50 (Acute toxicity in Mice; oral administration): 580 mg/kg
OC(CN1CCN(c2cccc(C(F)(F)F)c2)CC1)CN1CCN(c2cccc(C(F)(F)F)c2)CC1 [LJ 1152, 1,3-bis[4-(m-Trifluoromethylphenyl)-piperazino]-propan-2-ol]	–	–	375	50	36	25	inhibition in vivo at 22 mg/kg [1, 5]: 64%; inhibition in vivo at 72 mg/kg ([1]; Cavia porcellus, po, 1 h, 72 mg/kg p.o., read-out: Percentages of inhibition of coughing): 75%; antitussive activity (in words) [1]: also active if not more active than codeine; LD 0 (maximum dose tolerated) (Acute toxicity in Mice; oral administration): 125 mg/kg; LD 50 (Acute toxicity in Mice; oral administration): 225 mg/kg; % maximum reduction in the number of coughs ([2]; 3.6 mg/kg i.v.): 76%; % maximum reduction in the number of coughs ([2]; 7.2 mg/kg i.v.): 100%; effect on coughing in cats (in words) [2]: comparable with those of codeine
OC(CN1CCN(c2cccc(C(F)(F)F)c2)CC1)CN1CCN(c2cccc(C(F)(F)F)c2)CC1 [LJ 1154, 1,3-bis[4-(m-Trifluoromethylphenyl)-piperazino]-propan-2-ol]	–	–	200	44	–	–	inhibition in vivo at 6.75 mg/kg ([1]; Cavia porcellus, po, 1 h, 6.75 mg/kg p.o., read-out: Percentages of inhibition of coughing): 66%; inhibition in vivo at 13.5 mg/kg ([1]; Cavia porcellus, po, 1 h, 13.5 mg/kg p.o., read-out: Percentages of inhibition of coughing): 78%; antitussive activity (in words) [1]: also active if not more active than codeine; LD 0 (maximum dose tolerated) (Acute toxicity in Mice; intravenous administration): 25 mg/kg; LD 50 (Acute toxicity in Mice; intravenous administration): 37.5 mg/kg; LD 0 (maximum dose tolerated) (Acute toxicity in Mice; oral administration): 50 mg/kg; LD 50 (Acute toxicity in Mice; oral administration): 135 mg/kg; % maximum reduction in the number of coughs ([2]; 4 mg/kg i.v.): 80%; % maximum reduction in the number of coughs ([2]; 8 mg/kg i.v.): 100%; effect on coughing in cats (in words) [2]: comparable with those of codeine
O=C1CCCC1CN1CCN(c2cccc(C(F)(F)F)c2)CC1 (stereo not drawn) [LJ 1160]	975	500	1500	87.5	74	62.5	inhibition in vivo at 100 mg/kg ([1]; Cavia porcellus, po, 1 h, 100 mg/kg p.o., read-out: Percentages of inhibition of coughing): 50%; cataleptic effect [3]: absence of cataleptic effect; toxicity of amphetamine compounds (in words) [4]: reduce the toxicity of amphetamine compounds
OC1CCCCC1CN1CCN(c2cccc(C(F)(F)F)c2)CC1 (stereo not drawn) [LJ 1161, 2-[4-(m-Trifluoromethylphenyl)-piperazino]-methyl-cyclohexanol]	1500	750	2000	87.5	66	50	inhibition in vivo at 150 mg/kg ([1]; Cavia porcellus, po, 1 h, 150 mg/kg p.o., read-out: Percentages of inhibition of coughing): 75%; cataleptic effect [3]: absence of cataleptic effect
O=C(CN1CCN(c2cccc(C(F)(F)F)c2)CC1)CN1CCN(c2cccc(C(F)(F)F)c2)CC1 [LJ 1163]	180	125	250	22.5	18	12.5	inhibition in vivo at 9 mg/kg ([1]; Cavia porcellus, po, 1 h, 9 mg/kg p.o., read-out: Percentages of inhibition of coughing): 64%; inhibition in vivo at 18 mg/kg ([1]; Cavia porcellus, po, 1 h, 18 mg/kg p.o., read-out: Percentages of inhibition of coughing): 78%; antitussive activity (in words) [1]: also active if not more active than codeine; % maximum reduction in the number of coughs ([2]; 1.8 mg/kg i.v.): 50%; Delay in the disappearance of protective effect ([2]; 1.8 mg/kg i.v.): Fleeting; % maximum reduction in the number of coughs ([2]; 3.6 mg/kg i.v.): 62%
O=C1CCCCCC1CN1CCN(c2cccc(C(F)(F)F)c2)CC1 (stereo not drawn) [LJ 1176, 2-[4-(m-Trifluoromethylphenyl)-piperazino]-methyl-cycloheptanone]	1950	1500	2500	–	–	–	inhibition in vivo at 200 mg/kg ([1]; Cavia porcellus, po, 1 h, 200 mg/kg p.o., read-out: Percentages of inhibition of coughing): 78%; cataleptic effect [3]: absence of cataleptic effect
OCCN1CCN(c2ccc(F)c(C(F)(F)F)c2)CC1 [LJ 1195, 2-[4-(3-Trifluoromethyl-4-fluorophenyl)-piperazino]-ethanol]	844	300	1250	–	–	–	–
O=C1CCCCC1CN1CCN(c2ccc(F)c(C(F)(F)F)c2)CC1 (stereo not drawn) [LJ 1196, 2-[4-(3-Trifluoromethyl-4-fluorophenyl)-piperazino]-methyl-cyclohexanone]	937	625	1250	–	–	–	–
OC(CN1CCN(c2ccc(F)c(C(F)(F)F)c2)CC1)CN1CCN(c2ccc(F)c(C(F)(F)F)c2)CC1 [LJ 1198, 1,3-bis[4-(3-Trifluoromethyl-4-fluorophenyl)-piperazino)-propan-2-ol]	225	50	400	–	–	–	inhibition in vivo at 22 mg/kg [1, 5]: 50%
